Entries after “also recorded” stand apart in the source; their conditions may differ. Values belong to the sequence of their own block, whether it stands above or below them.
What was measured:
[1] = test system: spleen cells of HLA-A11 transgenic mice immunized with MAGE-A9 full length recombinant protein; experiment: IFN-γ ELISPOT, MAGE-A9 immunogenic HLA-A3/A11 peptides; assay type: cell-based
Excerpt: FIGS. 23A and 23B depict IFN-γ ELISPOT results of the experiment for the MAGE-A9 immunogenic HLA-A3/A11 peptides. IFN-γ response induced by HLA-A3 candidate peptides of MAGE-A9 as detected by IFN-γ ELISPOT assay. Two group of 3 and 10 HLA-A11 transgenic mice were immunized respectively with DPX-Empty alone (as control; bar on the left) and with MAGE-A9 full-length recombinant protein admixed with poly(I:C) (bar on the right). Mice were sacrificed 36 days after 1st immunization and spleen cells were tested in IFN-γ ELISPOT after stimulation with dendritic cells loaded with the individual candidate or control peptides (FIG. 23A) or after direct stimulation with the individual candidate or control peptides (FIG. 23B). DCE: Dendritic cell empty; NS: Non stimulated; A3-Ctrl; irrelevant control HLA-A3 peptide.
(§1) IFN-γ ELISPOTs was performed to measure antigen-specific T-cell activation upon stimulation with peptides containing the putative epitopes. […]
(§2) Groups of ten 6-12 weeks-old HLA-A1, HLA-A2/DR1, HLA-A24, HLA-All (as a surrogate for HLA-A3 allele) and HLA-B7 male/female mice were immunized three times s.c. and i.p., 14 days apart, with 30 μg of MAGE-A9 his-tag full-length recombinant protein admixed with 50 μg (s.c.) or 200 μg (i.p.) of Poly(I:C) in a final volume of 100 μl. On day 34, mice were sacrificed. Splenocytes were isolated from spleens and treated with ACK lysis buffer to lyse contaminating erythrocytes. Splenocytes were stimulated with the candidate peptides alone or with dendritic cells loaded with the candidate peptides. The immune response was measured using IFN-γ ELISPOT assays (BD). Then spots were counted using an ELISPOT counter (CTL Analyzer) and enumerated as number of spot-forming units (SFU) per well. Each experiment was repeated two or three times (except for the experiment with HLA-A11 (as a surrogate for HLA-A3 allele) mice which was done only once).
(§3) Student's t-tests were performed to compare two groups (non-stimulated versus stimulated with test peptide). […]

[2] = test system: spleen cells of HLA-A24 transgenic mice immunized with MAGE-A9 full length recombinant protein; experiment: IFN-γ ELISPOT, MAGE-A9 immunogenic HLA-A24 peptides; assay type: cell-based; settings: three experiments
Method: FIGS. 16A and 16B depict IFN-γ ELISPOT results of 1st experiment for the MAGE-A9 immunogenic HLA-A24 peptides. IFN-γ response induced against HLA-A24 candidate peptides of MAGE-A9 as detected by IFN-γ ELISPOT assay. Two group of 3 and 5 mice were immunized respectively with poly(I:C) alone (as control; bar on the left) and with MAGE-A9 full-length recombinant protein admixed with poly(I:C) (bar on the right). Mice were sacrificed 34 days after 1st immunization and spleen cells were tested in IFN-γ ELISPOT after stimulation with dendritic cells loaded with the individual candidate or control peptides (FIG. 16A) or after direct stimulation with the individual candidate or control peptides (FIG. 16B). DCE: Dendritic cell empty; NS: Non stimulated; A24-Ctrl; irrelevant control HLA-A24 peptide. Student T-test *p<0.05; ** p<0.005; *** p<0.0005; **** p<0.00005.
as §1, §2, §3

[3] = test system: spleen cells of HLA-A2/DR1 transgenic mice immunized with MAGE-A9 full length recombinant protein; experiment: IFN-γ ELISPOT, MAGE-A9 immunogenic HLA-A2 peptides; assay type: cell-based; settings: for IFN-γ response (ELISPOT): HLA-A2/DR1 mice, three experiments
Method: FIGS. 11A and 11B depict IFN-γ ELISPOT results of 1st experiment for the MAGE-A9 immunogenic HLA-A2 peptides. Induction of IFN-γ response induced against HLA-A2 peptides of MAGE-A9 as detected by IFN-γ ELISPOT assay. A group of 10 mice was immunized with MAGE-A9 full length recombinant protein admixed with poly(I:C). Mice were sacrificed 34 days after 1st immunization and spleen cells were tested in IFN-γ ELISPOT after stimulation with dendritic cells loaded with the individual candidate or control peptides (FIG. 11A) or after direct stimulation with the individual candidate or control peptides (FIG. 11B). DCE: Dendritic cell empty; NS: Non stimulated; INF, gp100 and EBV: irrelevant HLA-A2 control peptides. Student T-test *p<0.05; ** p<0.005; *** p<0.0005; **** p<0.00005.
as §1, §2
Student's t-tests were performed to compare two groups (non-stimulated versus stimulated with test peptide). To indicate significance, p-values are represented in the figures by * p<0.05, ** p<0.01, *** p<0.001, and **** p=0.0001. All data are presented as means with standard error of the mean (SEM).
The experiment was repeated three times for a total number of 30 mice (FIGS. 11, 12, and 13). The immune response for peptides 111, 24, 223 and 270 via Chromium 51 (^51Cr) release assays (CTL assays) is also presented in Example 6. […] These tests offer a very high sensitivity, which explains why the INF-Y response for these peptides appears to be weaker, although the peptides are responsive in other assays (see Examples 6).

[4] = biological target: MHC class 1 allele A*02:01 (Homo sapiens, UniProt P04439, D140Y/D185E/D98H/E176V/E277Q/G131W/G231S/I119V/I121R/I166T/I218V/L300P/L318F/N151K/N90K/P208A/P217A/Q86G/Q94H/R138H/R169H/T345S); experiment: REVEAL binding of HLA-A2 binding peptides; settings: for binding to MHC class 1 allele A*02:01 (in words): Higher REVEAL score
HLA-A2 = biological target: T1, HLA-A2 (Homo sapiens, UniProt P04439, D140Y/D185E/D98H/E176V/E277Q/G131W/G231S/I119V/I121R/I166T/I218V/L300P/N151K/N90K/P208A/P217A/Q86G/Q94H/R138H/R169H); experiment: Flex-T in vitro HLA binding assay (HLA class I ELISA); settings: Flex-T monomer peptide exchange, β2-microglobulin ELISA
T1 construct: purchased Biolegend, USA
Method: Internal in vitro assay that assesses the binding of each of the peptides to HLA-A2 as a part of the potency assay development was performed using the Flex-T in vitro binding assay.
Flex-T technology (Biolegend, USA) offers the opportunity to quantitatively measure the binding affinity of peptides to their respective MHC Class I receptors (In this case HLA-A2). Flex-T was made of MHC monomers loaded with a peptide that can be degraded using a UV light source. This allowed for a peptide exchange when the UV irradiation was done in the presence of the peptide of interest which is not UV-labile.
The binding of the peptide of interest to the Flex-T monomer was quantified using an HLA class I ELISA method based on the detection of β2-microglobulin subunit of HLA class I complexes, after capturing the complex through the conjugated biotin. To this end, biotinylated HLA class I monomer-peptide complex was first captured in streptavidin coated microtiter wells. Subsequently, lRP-conjugated anti-human 02-microglobulin was added to detect intact HLA class I complexes. Only intact HLA class I complexes were recognized.
The relative potency was then calculated compared to a reference lot using parallel line analysis as per USP <1034>.

[5] = test system: spleen cells of HLA-A1 transgenic mice immunized with MAGE-A9 full length recombinant protein; experiment: IFN-γ ELISPOT, MAGE-A9 immunogenic HLA-A1 peptides; assay type: cell-based
Method: FIGS. 14A and 14B depict IFN-γ ELISPOT results of 1st experiment for the MAGE-A9 immunogenic HLA-A1 peptides. IFN-γ response induced by HLA-A1 candidate peptides of MAGE-A9 as detected by IFN-γ ELISPOT assay. Two groups of 3 and 5 mice were immunized respectively with poly(I:C) alone (as control; bar on the left) and with MAGE-A9 full-length recombinant protein admixed with poly(I:C) (bar on the right). Mice were sacrificed 34 days after 1st immunization and spleen cells were tested in IFN-γ ELISPOT after stimulation with dendritic cells loaded with the individual candidate or control peptides (FIG. 14A) or after direct stimulation with the individual candidate or control peptides (FIG. 14B). DCE: Dendritic cell empty; NS: Non stimulated; Ctrl HLA-A1; irrelevant control HLA-A1 peptide. Student T-test *p<0.05; ** p<0.005; *** p<0.0005; **** p<0.00005. […]
(§4) Groups of ten 6-12 weeks-old HLA-A1, HLA-A2/DR1, HLA-A24, HLA-All (as a surrogate for HLA-A3 allele) and HLA-B7 male/female mice were immunized three times s.c. and i.p., 14 days apart, with 30 μg of MAGE-A9 his-tag full-length recombinant protein admixed with 50 μg (s.c.) or 200 μg (i.p.) of Poly(I:C) in a final volume of 100 μl. […] The immune response was measured using IFN-γ ELISPOT assays (BD). Then spots were counted using an ELISPOT counter (CTL Analyzer) and enumerated as number of spot-forming units (SFU) per well. […]

[6] = test system: peptide-loaded RMA-S HHD cells; experiment: Chromium 51 release assay (CTL assay); assay type: cell-based, mice; settings: for CTL response (51Cr-release): effector:target 75:1, 50:1, 25:1, mice immunized with recombinant MAGE-A9 and poly(I:C)
[7] = test system: spleen cells of HLA-B7 transgenic mice immunized with MAGE-A9 full length recombinant protein; experiment: IFN-γ ELISPOT, MAGE-A9 immunogenic HLA-B7 peptides; assay type: cell-based; settings: individual responses per mouse
Method: FIGS. 19A and 19B depict IFN-γ ELISPOT results of 1st experiment for the MAGE-A9 immunogenic HLA-B7 peptides. IFN-γ response induced by HLA-B7 candidate peptides of MAGE-A9 as detected by IFN-γ ELISPOT assay. Two group of 3 and 5 mice were immunized respectively with poly(I:C) alone (as control; bar on the left) and with MAGE-A9 full-length recombinant protein admixed with poly(I:C) (bar on the right). Mice were sacrificed 34 days after 1st immunization and spleen cells were tested in IFN-γ ELISPOT after stimulation with dendritic cells loaded with the individual candidate or control peptides (FIG. 19A) or after direct stimulation with the individual candidate or control peptides (FIG. 19B). DCE: Dendritic cell empty; NS: Non stimulated; B7-Ctrl; irrelevant control HLA-B7 peptide. Student T-test *p<0.05; ** p<0.005; *** p<0.0005; **** p<0.00005. […]
as §4

Sequence: FLLHKYRVK [peptide 118, MAGE-A9 peptide antigen]
- IFN-γ response (ELISPOT) ([1]; only with peptide-loaded DC): good reactivity

Sequence: SVMGVYVGK [peptide 225, MAGE-A9 peptide antigen]
- IFN-γ response (ELISPOT) ([1]; HLA-A11 mice, peptide-loaded DC or peptides alone): very strong; also recorded: very immunogenic

Sequence: VYYTLWSQF [compound 71]
- IFN-γ response (ELISPOT) [2]: interesting

Sequence: FMFQEALKL [peptide 102, MAGE-A9 peptide antigen]
- IFN-γ response (ELISPOT) [3]: highest; also recorded: consistently observed
- IFN-γ response (ELISPOT), significance ([3]; splenocytes stimulated with peptide-loaded DCs): statistically significant in two out of three experiments

Sequence: NYKRYFPVI [peptide 141]
- IFN-γ response (ELISPOT) [2]: interesting; also recorded: highest responder; also recorded: good immune responses; also recorded: stronger and more consistent results

- binding affinity compared to M9-A2-270 [4]: lower binding affinity
- binding to MHC class 1 allele A*02:01 (in words) [4]: high binding
- HLA-A2 binding (HLA-A2): high affinity binding
Sequence: KVAELVHFL [MAGE-A9 111]
- IFN-γ response (ELISPOT) [3]: consistently higher
- IFN-γ response (ELISPOT) ([5]; first experiment, peptide-loaded DC (FIG. 14A), not observed in the 2nd experiment): moderate response
- specific lysis compared to M9-A2-270 [6]: higher specific lysis
- CTL response (51Cr-release) [6]: elicited a response

Sequence: GLMGAQEPT [MAGE-A9 24, MAGE-A9 peptide antigen]
- CTL response (51Cr-release) [6]: elicited a response

Sequence: MPKAALLII [peptide 195]
- IFN-γ response (ELISPOT) [7]: greatest activity; also recorded: gave an immune response

Sequence: ALLIIVLGV [compound 199, MAGE-A9 peptide antigen]
- IFN-γ response (ELISPOT) [3]: highest

Sequence: EVDPAGHSY [peptide 167]
- IFN-γ response (ELISPOT) ([5]; HLA-A1 mice, two experiments): very strong; also recorded: highly immunogenic

- binding to MHC class 1 allele A*02:01 (in words) [4]: high binding
Sequence: FLWGSKAHA [MAGE-A9 270, MAGE-A9 peptide antigen]
- CTL response (51Cr-release) [6]: elicited a response

Sequence: SYILVTALG [compound 174]
- IFN-γ response (ELISPOT) [2]: interesting; also recorded: good immune responses

Sequence: LMLGEFLKL [SurA2.M, survivin peptide antigen HLA-A2]
- binding to MHC class 1 allele A*02:01 (in words) [4]: high binding
- HLA-A2 binding (HLA-A2): high affinity binding

Sequence: IVLGVILTK [peptide 203, MAGE-A9 peptide antigen]
- IFN-γ response (ELISPOT) ([1]; restimulated with peptide alone): weak but significant reactivity

Sequence: STFKNWPFL [SurA24, survivin peptide antigen HLA-A24]
- binding to MHC class 1 allele A*02:01 (in words) [4]: high binding
- Kinetic score ([4]; MHC class 1 allele A*02:01): 0.00
- On-rate T1/2 ([4]; MHC class 1 allele A*02:01): 31.52 h
- R-score ([4]; MHC class 1 allele A*02:01): 0.00
- Off-rate T1/2 ([4]; MHC class 1 allele A*02:01, * = no significant, stable complex at end of measurement period): 7.2 min
- REVEAL score ([4]; MHC class 1 allele A*02:01, Positive Control 100): 61.93

Reference: patent US20240390468A1, “SURVIVIN AND MAGE-A9 DUAL-TARGETED IMMUNOTHERAPY” (IMMUNOVACCINE TECHNOLOGIES INC., priority 2022, published 2024)
